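Tested at 5 concentrations; 48 h exposure; 96-well plates; endpoints linearly interpolated, else capped at highest concentration. GI50 marks 50% less growth. Definition used: TGI = concentration required for complete inhibition of growth.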
Tests used:
Experiment in all cases: inhibition of tumour cell growth, NCI panel, 48 h
SK-MEL-5 melanoma = tested on: SK-MEL-5 melanoma
HS 578T breast = tested on: HS 578T breast
NCI-H23 lung = tested on: NCI-H23 lung
LOX IMVI melanoma = tested on: LOX IMVI melanoma
NCI-H460 lung = tested on: NCI-H460 lung
SN12C renal = tested on: SN12C renal
A498 renal = tested on: A498 renal
UACC-257 melanoma = tested on: UACC-257 melanoma
MOLT-4 leukemia = tested on: MOLT-4 leukemia
PC-3 prostate = tested on: PC-3 prostate
M14 melanoma = tested on: M14 melanoma
MDA-MB-435 = tested on: MDA-MB-435
HT29 colon = tested on: HT29 colon
DU-145 prostate = tested on: DU-145 prostate
SF-295 CNS = tested on: SF-295 CNS
TK-10 renal = tested on: TK-10 renal
MDA-N = tested on: MDA-N
SK-OV-3 ovarian = tested on: SK-OV-3 ovarian
U251 CNS = tested on: U251 CNS
UO-31 renal = tested on: UO-31 renal
HCC-2998 colon = tested on: HCC-2998 colon
BT-549 breast = tested on: BT-549 breast
IGROV1 ovarian = tested on: IGROV1 ovarian
SF-268 CNS = tested on: SF-268 CNS
RXF 393 renal = tested on: RXF 393 renal
OVCAR-5 ovarian = tested on: OVCAR-5 ovarian
MALME-3M melanoma = tested on: MALME-3M melanoma
KM12 colon = tested on: KM12 colon
HOP-62 NSCLC = tested on: HOP-62 NSCLC
K-562 leukemia = tested on: K-562 leukemia
RPMI-8226 leukemia = tested on: RPMI-8226 leukemia
HCT-15 colon = tested on: HCT-15 colon
NCI-H226 lung = tested on: NCI-H226 lung
COLO 205 colon = tested on: COLO 205 colon
SNB-75 CNS = tested on: SNB-75 CNS
EKVX NSCLC = tested on: EKVX NSCLC
ACHN renal = tested on: ACHN renal
SK-MEL-2 melanoma = tested on: SK-MEL-2 melanoma
MCF7 breast = tested on: MCF7 breast
UACC-62 melanoma = tested on: UACC-62 melanoma
OVCAR-3 ovarian = tested on: OVCAR-3 ovarian
CCRF-CEM leukemia = tested on: CCRF-CEM leukemia
786-0 renal = tested on: 786-0 renal
SW-620 colon = tested on: SW-620 colon
HCT-116 colon = tested on: HCT-116 colon
MDA-MB-231 breast = tested on: MDA-MB-231 breast
CAKI-1 renal = tested on: CAKI-1 renal
SR leukemia = tested on: SR leukemia
SF-539 CNS = tested on: SF-539 CNS
SNB-19 CNS = tested on: SNB-19 CNS
HL-60(TB) leukemia = tested on: HL-60(TB) leukemia
NCI-H522 lung = tested on: NCI-H522 lung
T-47D breast = tested on: T-47D breast
SK-MEL-28 melanoma = tested on: SK-MEL-28 melanoma
A549 NSCLC = tested on: A549 NSCLC
HOP-92 NSCLC = tested on: HOP-92 NSCLC
OVCAR-4 ovarian = tested on: OVCAR-4 ovarian
NCI/ADR-RES ovarian = tested on: NCI/ADR-RES ovarian
OVCAR-8 ovarian = tested on: OVCAR-8 ovarian

## CC(=O)OC1C(C)OC(OC(=O)C2CCC3C(C2)OC2(CC(OC(=O)/C=C/c4ccccc4)C(C)CO2)C32CO2)C(OC2OC(C)C(O)C(OC(C)=O)C2O)C1O (stereo unspecified)
SK-MEL-5 melanoma
  TGI: 0.165 µM
HS 578T breast
  TGI: < 0.01 µM
NCI-H23 lung
  TGI: < 0.01 µM
LOX IMVI melanoma
  TGI: < 0.01 µM
NCI-H460 lung
  TGI: < 0.0125 µM
SN12C renal
  TGI: < 0.01 µM
A498 renal
  TGI: 0.286 µM
UACC-257 melanoma
  TGI: < 0.0137 µM
MOLT-4 leukemia
  TGI: < 0.01 µM
PC-3 prostate
  TGI: 0.0402 µM
M14 melanoma
  TGI: 0.104 µM
MDA-MB-435
  TGI: < 0.01 µM
HT29 colon
  TGI: < 0.01 µM
DU-145 prostate
  TGI: 0.0213 µM
SF-295 CNS
  TGI: < 0.0304 µM
TK-10 renal
  TGI: > 100 µM
MDA-N
  TGI: < 0.01 µM
SK-OV-3 ovarian
  TGI: > 100 µM
U251 CNS
  TGI: < 0.01 µM
UO-31 renal
  TGI: 2.96 µM
HCC-2998 colon
  TGI: < 0.01 µM
BT-549 breast
  TGI: < 0.0335 µM
IGROV1 ovarian
  TGI: < 0.01 µM
SF-268 CNS
  TGI: < 0.0136 µM
RXF 393 renal
  TGI: < 0.0434 µM
OVCAR-5 ovarian
  TGI: 0.0407 µM
MALME-3M melanoma
  TGI: < 0.01 µM
KM12 colon
  TGI: < 0.0123 µM
HOP-62 NSCLC
  TGI: > 100 µM
K-562 leukemia
  TGI: > 100 µM
RPMI-8226 leukemia
  TGI: < 0.01 µM
HCT-15 colon
  TGI: 5.8 µM
NCI-H226 lung
  TGI: < 0.01 µM
COLO 205 colon
  TGI: > 100 µM
SNB-75 CNS
  TGI: < 0.01 µM
EKVX NSCLC
  TGI: 1.27 µM
ACHN renal
  TGI: 1.19 µM
SK-MEL-2 melanoma
  TGI: < 0.01 µM
MCF7 breast
  TGI: > 100 µM
UACC-62 melanoma
  TGI: < 0.01 µM

## O=C1c2ccccc2C(=O)c2sc(Nc3ccccc3C(F)(F)F)nc21
OVCAR-3 ovarian
  TGI: 27.5 µM
CCRF-CEM leukemia
  TGI: > 100 µM
SK-MEL-5 melanoma
  TGI: 22.7 µM
HS 578T breast
  TGI: 48.2 µM
786-0 renal
  TGI: 41 µM
NCI-H23 lung
  TGI: 42.8 µM
LOX IMVI melanoma
  TGI: > 100 µM
NCI-H460 lung
  TGI: 58.1 µM
SN12C renal
  TGI: > 100 µM
A498 renal
  TGI: 28.9 µM
SW-620 colon
  TGI: 24.4 µM
UACC-257 melanoma
  TGI: 32.4 µM
HCT-116 colon
  TGI: > 100 µM
MDA-MB-231 breast
  TGI: 16.1 µM
CAKI-1 renal
  TGI: 21.1 µM
MOLT-4 leukemia
  TGI: 85.1 µM
SR leukemia
  TGI: > 100 µM
PC-3 prostate
  TGI: 26.1 µM
M14 melanoma
  TGI: 50.7 µM
SF-539 CNS
  TGI: 45.8 µM
SNB-19 CNS
  TGI: 55.2 µM
MDA-MB-435
  TGI: 16 µM
DU-145 prostate
  TGI: 31.7 µM
SF-295 CNS
  TGI: 32.2 µM
HL-60(TB) leukemia
  TGI: 17.7 µM
TK-10 renal
  TGI: 35.7 µM
MDA-N
  TGI: 30.8 µM
NCI-H522 lung
  TGI: > 100 µM
SK-OV-3 ovarian
  TGI: 30.8 µM
U251 CNS
  TGI: 22.4 µM
UO-31 renal
  TGI: 25.2 µM
HCC-2998 colon
  TGI: 35.2 µM
IGROV1 ovarian
  TGI: 34.5 µM
SF-268 CNS
  TGI: 30.1 µM
T-47D breast
  TGI: 44.5 µM
RXF 393 renal
  TGI: 39 µM
SK-MEL-28 melanoma
  TGI: 30.3 µM
OVCAR-5 ovarian
  TGI: 44.6 µM
MALME-3M melanoma
  TGI: 29.9 µM
KM12 colon
  TGI: 27.4 µM
HOP-62 NSCLC
  TGI: 28.2 µM
A549 NSCLC
  TGI: 57.2 µM
K-562 leukemia
  TGI: 14.8 µM
RPMI-8226 leukemia
  TGI: 74.4 µM
HCT-15 colon
  TGI: > 100 µM
COLO 205 colon
  TGI: 27.8 µM
SNB-75 CNS
  TGI: 35.8 µM
EKVX NSCLC
  TGI: 55.1 µM
ACHN renal
  TGI: 33 µM
SK-MEL-2 melanoma
  TGI: 25.2 µM
MCF7 breast
  TGI: 45.9 µM
UACC-62 melanoma
  TGI: 29.7 µM
HOP-92 NSCLC
  TGI: 23.7 µM

## Cc1ccc(C(NC(=O)c2ccccc2)c2ccc3cccnc3c2O)cc1 (stereo unspecified)
OVCAR-3 ovarian
  GI50: 0.351 µM
  TGI: 18.2 µM
CCRF-CEM leukemia
  GI50: 0.0783 µM
SK-MEL-5 melanoma
  GI50: 0.201 µM
  TGI: 0.439 µM
HS 578T breast
  GI50: 1.25 µM
  TGI: > 74.7 µM
786-0 renal
  GI50: 0.301 µM
  TGI: 1.81 µM
NCI-H23 lung
  GI50: 0.417 µM
  TGI: > 32.5 µM
LOX IMVI melanoma
  GI50: 0.15 µM
NCI-H460 lung
  GI50: 0.26 µM
  TGI: 3.08 µM
SN12C renal
  GI50: 0.451 µM
  TGI: 48.7 µM
A498 renal
  GI50: 0.376 µM
  TGI: 7.88 µM
SW-620 colon
  GI50: 0.431 µM
  TGI: > 43.5 µM
OVCAR-4 ovarian
  GI50: 0.275 µM
  TGI: > 52 µM
UACC-257 melanoma
  GI50: 0.293 µM
  TGI: 2.58 µM
HCT-116 colon
  GI50: 0.303 µM
  TGI: 13.8 µM
MDA-MB-231 breast
  GI50: 0.315 µM
  TGI: 22.4 µM
CAKI-1 renal
  GI50: 0.328 µM
  TGI: > 50.7 µM
NCI/ADR-RES ovarian
  GI50: 0.189 µM
MOLT-4 leukemia
  GI50: 0.332 µM
  TGI: > 70.2 µM
SR leukemia
  GI50: 0.197 µM
  TGI: > 63.5 µM
PC-3 prostate
  GI50: 0.354 µM
  TGI: 26.3 µM
M14 melanoma
  GI50: 0.244 µM
  TGI: 2.38 µM
SF-539 CNS
  GI50: 0.318 µM
  TGI: 1.91 µM
SNB-19 CNS
  GI50: 0.492 µM
  TGI: > 100 µM
MDA-MB-435
  GI50: 0.491 µM
  TGI: 23.4 µM
HT29 colon
  GI50: 0.536 µM
  TGI: 19.4 µM
DU-145 prostate
  GI50: 0.442 µM
  TGI: 41.9 µM
SF-295 CNS
  GI50: 0.351 µM
  TGI: 14.7 µM
HL-60(TB) leukemia
  GI50: 0.288 µM
  TGI: 1 µM
TK-10 renal
  GI50: 0.413 µM
  TGI: 24.1 µM
NCI-H522 lung
  GI50: 0.31 µM
  TGI: 2.74 µM
SK-OV-3 ovarian
  GI50: 0.474 µM
  TGI: 30.7 µM
U251 CNS
  GI50: 0.249 µM
  TGI: 18.4 µM
UO-31 renal
  GI50: 0.198 µM
  TGI: 1.19 µM
HCC-2998 colon
  GI50: 0.331 µM
  TGI: 18.5 µM
BT-549 breast
  GI50: 0.524 µM
  TGI: > 40.6 µM
OVCAR-8 ovarian
  GI50: 0.306 µM
  TGI: 25.1 µM
IGROV1 ovarian
  GI50: 0.352 µM
  TGI: 4.95 µM
SF-268 CNS
  GI50: 0.266 µM
  TGI: > 48.4 µM
T-47D breast
  GI50: 0.478 µM
  TGI: 27.7 µM
RXF 393 renal
  GI50: 0.252 µM
  TGI: 1.58 µM
SK-MEL-28 melanoma
  GI50: 0.492 µM
  TGI: 41.6 µM
OVCAR-5 ovarian
  GI50: 0.611 µM
  TGI: > 70.4 µM
MALME-3M melanoma
  GI50: 0.441 µM
  TGI: 12.3 µM
KM12 colon
  GI50: 0.38 µM
  TGI: > 43.7 µM
HOP-62 NSCLC
  GI50: 0.487 µM
  TGI: > 41.6 µM
A549 NSCLC
  GI50: 0.379 µM
  TGI: 12.7 µM
K-562 leukemia
  GI50: 0.349 µM
  TGI: 90 µM
RPMI-8226 leukemia
  GI50: 0.323 µM
  TGI: 17.8 µM
HCT-15 colon
  GI50: 0.24 µM
  TGI: > 91.2 µM
NCI-H226 lung
  GI50: 0.302 µM
  TGI: 3.69 µM
COLO 205 colon
  GI50: 0.44 µM
  TGI: 18.5 µM
SNB-75 CNS
  GI50: 0.927 µM
  TGI: 60 µM
EKVX NSCLC
  GI50: 0.357 µM
  TGI: 53.5 µM
ACHN renal
  GI50: 0.285 µM
  TGI: 15.4 µM
SK-MEL-2 melanoma
  GI50: 0.608 µM
  TGI: 10.3 µM
MCF7 breast
  GI50: 0.365 µM
  TGI: > 47.3 µM
UACC-62 melanoma
  GI50: 0.236 µM
  TGI: 0.763 µM
HOP-92 NSCLC
  GI50: 0.145 µM
  TGI: 11.7 µM
